Reference: patent US20260132125A1, “PESTICIDALLY ACTIVE FUSED BICYCLIC HETEROAROMATIC COMPOUNDS” (priority 2022, published 2026)

Key:
Assay type in all cases: in vivo
Spodoptera littoralis = assay: Example B6: activity against Spodoptera littoralis (Egyptian cotton leaf worm), cotton leaf discs; settings: foliar; for percent control (mortality, anti-feedant effect or growth inhibition) at 200 ppm: 72 h, L1 larvae, 3 days after infestation, read-out: control (at least one of mortality, anti-feedant effect, growth inhibition)
Description: Cotton leaf discs were placed onto agar in 24-well microtiter plates and sprayed with aqueous test solutions prepared from 10′000 ppm DMSO stock solutions. After drying the leaf discs were infested with five L1 larvae. The samples were assessed for mortality, anti-feeding effect, and growth inhibition in comparison to untreated samples 3 days after infestation. Control of Spodoptera littoralis by a test sample is given when at least one of the categories mortality, anti-feedant effect, and growth inhibition is higher than the untreated sample.

Plutella xylostella = assay: Example B5: activity against Plutella xylostella (diamond back moth), artificial diet, eggs; settings: 192 h, 8 days after infestation, read-out: effect in at least one of the two categories (mortality or growth inhibition)
Description: 24-well microtiter plates with artificial diet were treated with aqueous test solutions prepared from 10′000 ppm DMSO stock solutions by pipetting. After drying, Plutella eggs were pipetted through a plastic stencil onto a gel blotting paper and the plate was closed with it. The samples were assessed for mortality and growth inhibition in comparison to untreated samples 8 days after infestation. The following compounds gave an effect of at least 80% in at least one of the two categories (mortality or growth inhibition) at an application rate of 200 ppm: P1, P2, P3, P4, P5, P6, P7, P8, P9, P10, P11, P12, P13, P14, P15, P16, P17, P18, P19, P20, P21, P22, P23, P24, P25, P26, P27, P28, P29, P30, P31, P32, P33, P34, P35, P36, P37, P38, P39, P40, P41, P42, P43, P44, P45, P46, P47, P48, P49, P50, P51, P52, P53, P54, P55, P57, P58, P59, P60, P61, P62, P63, P64, P65, P66, P67, P69, P70, P71, P72, P73, P74, P75, P77, P78, P81, P82, P83.

Pseudoplusia includens = assay: Example B9: Pseudoplusia includens (soybean looper), larvicide, feeding/contact, soybean plants; settings: Chrysodeixis includens, 120 h; 50 ppm; L2 larvae; 5 days after infestation; read-out: effect in at least one of the two categories (mortality or growth inhibition)
Description: Soybean plants were treated in a spray chamber, cut off and placed into petri dishes containing wet filter paper. 1d after application leaves were infested with 5 L2 larvae and covered with a fabric filter and plastic lids. 5 days after infestation the samples were assessed for mortality and growth inhibition. The following compounds gave an effect of at least 80% in at least one of the two categories (mortality or growth inhibition) at an application rate of 50 ppm: […]

Chilo suppressalis = assay: Example B1: activity against Chilo suppressalis (striped rice stemborer), artificial diet; settings: 144 h, 200 ppm, L2 larvae, 6 days after infestation, read-out: control (at least one of mortality, anti-feedant effect, growth inhibition)
Description: 24-well microtiter plates with artificial diet were treated with aqueous test solutions prepared from 10′000 ppm DMSO stock solutions by pipetting. After drying, the plates were infested with L2 larvae (6-8 per well). The samples were assessed for mortality, anti-feeding effect, and growth inhibition in comparison to untreated samples 6 days after infestation. Control of Chilo suppressalis by a test sample is given when at least one of the categories mortality, anti-feedant effect, and growth inhibition is higher than the untreated sample.

Myzus persicae = assay: Example B4: activity against Myzus persicae (green peach aphid), intrinsic activity; settings: 120 h, test rate 12 ppm, 5 days after infestation
Description: Test compounds prepared from 10′000 ppm DMSO stock solutions were applied by pipette into 24-well microtiter plates and mixed with sucrose solution. The plates were closed with a stretched Parafilm. A plastic stencil with 24 holes was placed onto the plate and infested pea seedlings were placed directly on the Parafilm. The infested plate was closed with a gel blotting paper and another plastic stencil and then turned upside down. The samples were assessed for mortality 5 days after infestation.

Diabrotica balteata = assay: Example B2: activity against Diabrotica balteata (corn root worm), maize sprouts; settings: 96 h, L2 larvae, 4 days after infestation, read-out: effect in at least one of the two categories (mortality or growth inhibition)
Description: Maize sprouts placed onto an agar layer in 24-well microtiter plates were treated with aqueous test solutions prepared from 10′000 ppm DMSO stock solutions by spraying. After drying, the plates were infested with L2 larvae (6 to 10 per well). The samples were assessed for mortality and growth inhibition in comparison to untreated samples 4 days after infestation. The following compounds gave an effect of at least 80% in at least one of the two categories (mortality or growth inhibition) at an application rate of 200 ppm: P1, P2, P3, P4, P5, P7, P8, P9, P10, P11, P12, P13, P14, P15, P16, P17, P18, P19, P20, P21, P22, P23, P24, P25, P26, P27, P28, P29, P30, P31, P33, P34, P35, P36, P37, P38, P39, P40, P41, P42, P43, P45, P46, P47, P48, P49, P50, P51, P52, P53, P55, P57, P58, P59, P60, P61, P62, P63, P64, P65, P66, P67, P69, P71, P75, P81, P82, P83.

SMILES | percent control (mortality, anti-feedant effect or growth inhibition) at 200 ppm (Spodoptera littoralis) [%] | percent effect (mortality or growth inhibition) at 200 ppm (Plutella xylostella) [%] | percent effect (mortality or growth inhibition) at 50 ppm (Pseudoplusia includens) [%] | percent control (mortality, anti-feedant effect or growth inhibition) at 200 ppm (Chilo suppressalis) [%] | mortality at 12 ppm (Myzus persicae) [%] | percent effect (mortality or growth inhibition) at 200 ppm (Diabrotica balteata) [%] | mortality at 50 ppm (Spodoptera littoralis; 50 ppm) [%]
C[C@H](Nc1ncnc2c(C(F)(F)F)cc(Cl)cc12)c1ncnn1-c1ncc(C(N)=O)s1 [Compound P8] | ≥ 80 | ≥ 80 | ≥ 80 | ≥ 80 | ≥ 80 | ≥ 80 | –
C[C@H](Nc1ncnc2c(Cl)cc(I)cc12)c1ncnn1-c1ncc(C(N)=O)s1 [Compound P37, 2-[5-[(1S)-1-[(8-chloro-6-iodo-quinazolin-4-yl)amino]ethyl]-1,2,4-triazol-1-yl]thiazole-5-carboxamide] | ≥ 80 | ≥ 80 | – | ≥ 80 | ≥ 80 | ≥ 80 | 100
C[C@H](Nc1ncnc2c(C(F)(F)F)cc(Cl)cc12)c1ncnn1-c1cc(C(=O)NCCC#N)ncn1 [Compound P39] | ≥ 80 | ≥ 80 | – | ≥ 80 | ≥ 80 | ≥ 80 | –
C[C@H](Nc1ncnc2c(I)cc(Cl)cc12)c1ncnn1-c1cc(C#N)ncn1 [Compound P40, 6-[5-[(1S)-1-[(6-chloro-8-iodo-quinazolin-4-yl)amino]ethyl]-1,2,4-triazol-1-yl]pyrimidine-4-carbonitrile] | ≥ 80 | ≥ 80 | – | ≥ 80 | ≥ 80 | ≥ 80 | –
C[C@H](Nc1ncnc2c(C(F)(F)F)cc(Cl)cc12)c1ncnn1-c1cc(C(=O)NC(C)(C)C#N)ncn1 [Compound P43, 6-[5-[(1S)-1-[[6-chloro-8-(trifluoromethyl)quinazolin-4-yl]amino]ethyl]-1,2,4-triazol-1-yl]-N-(1-cyano-1-methyl-ethyl)pyrimidine-4-carboxamide] | ≥ 80 | ≥ 80 | – | ≥ 80 | ≥ 80 | ≥ 80 | –
C[C@H](Nc1ncnc2c(C(F)(F)F)cc(Cl)cc12)c1ncnn1-c1cc(C(=O)N(C)O)ncn1 [Compound P46, 6-[5-[(1S)-1-[[6-chloro-8-(trifluoromethyl)quinazolin-4-yl]amino]ethyl]-1,2,4-triazol-1-yl]-N-hydroxy-N-methyl-pyrimidine-4-carboxamide] | ≥ 80 | ≥ 80 | – | ≥ 80 | ≥ 80 | ≥ 80 | –
C[C@@H](c1ncnn1-c1cc(C(N)=O)ncn1)N(C)c1ncnc2c(Cl)cc(I)cc12 [Compound P49, 6-[5-[(1S)-1-[(8-chloro-6-iodo-quinazolin-4-yl)-methyl-amino]ethyl]-1,2,4-triazol-1-yl]pyrimidine-4-carboxamide] | ≥ 80 | ≥ 80 | – | ≥ 80 | ≥ 80 | ≥ 80 | –
C[C@H](Nc1ncnc2c(I)cc(Cl)cc12)c1ncnn1-c1cc(C(=O)N(C)C)ncn1 [Compound P65, 6-[5-[(1S)-1-[(6-chloro-8-iodo-quinazolin-4-yl)amino]ethyl]-1,2,4-triazol-1-yl]-N,N-dimethyl-pyrimidine-4-carboxamide] | ≥ 80 | ≥ 80 | – | ≥ 80 | ≥ 80 | ≥ 80 | –
C[C@@H](c1ncnn1-c1cc(C(=O)N(C)C)ncn1)N(C)c1ncnc2c(I)cc(Cl)cc12 [Compound P66, 6-[5-[(1S)-1-[(6-chloro-8-iodo-quinazolin-4-yl)-methyl-amino]ethyl]-1,2,4-triazol-1-yl]-N,N-dimethyl-pyrimidine-4-carboxamide] | ≥ 80 | ≥ 80 | – | ≥ 80 | ≥ 80 | ≥ 80 | –
C[C@H](Nc1ncnc2c(Cl)cc(C(F)(F)F)cc12)c1ncnn1-c1cnc(C(=O)NCC#N)cn1 [Compound P69, 5-[5-[(1S)-1-[[8-chloro-6-(trifluoromethyl)quinazolin-4-yl]amino]ethyl]-1,2,4-triazol-1-yl]-N-(cyanomethyl)pyrazine-2-carboxamide] | ≥ 80 | ≥ 80 | – | ≥ 80 | ≥ 80 | ≥ 80 | –
C[C@@H](c1ncnn1-c1cc(C(=O)N(C)C2CC2)ncn1)N(C)c1ncnc2c(C(F)(F)F)cc(Cl)cc12 [Compound P81, 6-[5-[(1S)-1-[[6-chloro-8-(trifluoromethyl)quinazolin-4-yl]-methyl-amino]ethyl]-1,2,4-triazol-1-yl]-N-cyclopropyl-N-methyl-pyrimidine-4-carboxamide] | ≥ 80 | ≥ 80 | – | ≥ 80 | ≥ 80 | ≥ 80 | –
C[C@@H](c1ncnn1-c1cc(C(=O)N(C)CC2CC2)ncn1)N(C)c1ncnc2c(C(F)(F)F)cc(Cl)cc12 [Compound P83, 6-[5-[(1S)-1-[[6-chloro-8-(trifluoromethyl)quinazolin-4-yl]-methyl-amino]ethyl]-1,2,4-triazol-1-yl]-N-(cyclopropylmethyl)-N-methyl-pyrimidine-4-carboxamide] | ≥ 80 | ≥ 80 | – | ≥ 80 | ≥ 80 | ≥ 80 | –
